Assay results from publication PMC12316308, “Interactions of substrates and phosphinyl containing inhibitors with bacterial and human zinc proteases” (PLOS One, 2025).
“And” between values parts separate entries of the source, which are not always exact repeats. Equal values may be shown once. Read-outs that look alike come from different tables or passages of the source.

Columns and labels:
Type in all cases: biochemical
[1] = biological target: T1, human MT1-MMP/MMP-14 (catalytic domain) (Homo sapiens, UniProt P50281); assay: Enzyme inhibition kinetics, fluorogenic substrate ES001; conditions: MMP-14; for remaining activity at 100 µM: 100 µM inhibitor
T1 construct: human MT1-MMP/MMP-14 (catalytic domain); purchased Calbiochem (San Diego, CA, USA)
Method: (§1) Determination of reaction velocities. The substrate ES001 was used for APMA activated MMP-9 (MMP-9(A)), Mag-Trypsin activated MMP-9 (MMP-9(MT)) and MMP-14, while the substrate ES005 was used for ALN, PLN and TLN. The reaction velocities/initial rates (v) were determined at 37°C, at an excitation wavelength of 320 nm and an emission wavelength of 405 nm with a slit width of 10 nm using either a Perkin Elmer LS 50 Luminescence spectrometer and the FL WinLab Software Package (Perkin Elmer) or a Clario Star micro plate reader (CLARIOstar® BMG LABTECH).
(§2) The phosphinic compounds were dissolved in 100% DMSO to a final concentration of 10 mM. In all assays, a fixed substrate concentration of 4.0 µM was used in a total volume of 100 µL 0.1 M Hepes pH 7.5, 10 mM CaCl2, 0.005% Brij-35 and 1.0% DMSO. Fixed enzyme concentrations were as follows; 0.05 nM MMP-9(A), 0.05 nM MMP-9(MT), 1.0 nM MMP-14, 1.4 nM ALN, 0.5 nM PLN and 0.21 nM TLN. Time dependent inhibitory experiments, with and without 100 μM of phosphinic compounds, were performed as follows: Compounds were either pre-incubated with proteases for 15 and 30 minutes at room temperature before initiating the enzymatic reaction by adding the substrate, or not pre-incubated, meaning the reaction was initiated by adding the protease to the mixture of substrate and compound. Control tests without the compound present were performed under the same conditions. Reactions were monitored for 30 minutes at 37°C.
(§3) Determination of IC50 and Ki values. […] A fixed substrate concentration and the same enzyme and buffer conditions as described above were used. Enzymes, with or without inhibitors, were either pre-incubated for 30 minutes at room temperature or not pre-incubated, and initial rate assays were performed as described above. Assays were performed using a Clario Star microplate reader. The IC50 values with corresponding s.d. were calculated with GraphPad Prism 5 using equation 1 or 2, depending on the concentration range of the phosphinic compounds.
(§4) Equation 3 describe the relationship between IC50 and Ki values for substrate competitive inhibitors, considering the fixed substrate concentration and the enzyme’s Km value for the substrate: […]

[2] = biological target: T2, APMA activated MMP-9 (MMP-9(A)) (Homo sapiens, UniProt P14780); assay: as above; conditions: rMMP-9 (APMA activated); for remaining activity at 100 µM: 100 µM inhibitor
T2 construct: made in house; host or cells: Sf9 and High Five insect cells
Method: (§5) The expression of recombinant full length proMMP-9 (rpMMP-9) in Sf9 and High Five insect cells and the purification were performed as previously described. The amount of proMMP-9 was estimated spectrophotometrically at 280 nm using ε280nm = […] [46] for the full length enzyme. Activation of the recombinant proMMP-9 was performed with APMA (auto-activation) and Mag-Trypsin as previously described, while the amount of active MMP-9 was determined by active site titration using galardin, also described previously.
as §1, §2, §3, §4

[3] = biological target: T3, Mag-Trypsin activated MMP-9 (MMP-9(MT)) (Homo sapiens, UniProt P14780); assay: as above; conditions: rMMP-9 (Mag-trypsin activated); for remaining activity at 100 µM: 100 µM inhibitor
T3 construct: made in house; host or cells: Sf9 and High Five insect cells
Method: as §5, §1, §2, §3, §4

[4] = biological target: T4, aureolysin (ALN) (Staphylococcus aureus, UniProt P81177); assay: Enzyme inhibition kinetics, fluorogenic substrate ES005; conditions: for remaining activity at 100 µM: 100 µM inhibitor
T4 construct: purchased BioCentrum Ltd (Kraków, Poland)
Method: as §1, §2, §3, §4

[5] = biological target: T5, pseudolysin (PLN, LasB) (Pseudomonas aeruginosa, UniProt P14756); assay: as above; conditions: for remaining activity at 100 µM: 100 µM inhibitor
T5 construct: purchased Calbiochem (San Diego, CA, USA)
Method: as §1, §2, §3, §4

[6] = biological target: T6, thermolysin (TLN) (Bacillus thermoproteolyticus, UniProt P00800); assay: as above; conditions: for vi/v0 avg (time dependent inhibition, Supplementary Figure S8): Thermolysin, inhibitor 100 µM
T6 construct: purchased Calbiochem (San Diego, CA, USA)
Method: as §1, §2, §3, §4

[7] = 0.25 h, 15 min pre incubation, read-out: vi/v0 avg
[8] = 0.5 h, 30 min pre incubation, read-out: vi/v0 (single replicate)
[9] = 0.5 h, 30 min pre incubation, read-out: vi/v0 avg
[10] = no preincubation, read-out: vi/v0 avg
[11] = inhibitor 100 μM, preincubation 0 min
[12] = inhibitor 100 μM, preincubation 15 min
[13] = inhibitor 100 μM, preincubation 30 min
[14] = 0.25 h, 15 min pre incubation, read-out: vi/v0 (single replicate)
[15] = no preincubation, read-out: vi/v0 (single replicate)
[16] = inhibitor 100 μM, average over 0, 15, 30 min preincubation

T4 sequence (P81177 209-509): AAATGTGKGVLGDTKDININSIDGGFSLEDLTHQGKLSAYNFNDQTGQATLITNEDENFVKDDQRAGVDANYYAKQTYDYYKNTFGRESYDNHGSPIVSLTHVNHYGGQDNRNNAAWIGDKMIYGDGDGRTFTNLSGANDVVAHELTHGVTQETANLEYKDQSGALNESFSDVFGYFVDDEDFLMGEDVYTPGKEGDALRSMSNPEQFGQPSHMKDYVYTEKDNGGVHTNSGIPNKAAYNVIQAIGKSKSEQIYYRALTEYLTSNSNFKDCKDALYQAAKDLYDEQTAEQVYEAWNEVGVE
T3 sequence (P14780 107-707 limits assumed): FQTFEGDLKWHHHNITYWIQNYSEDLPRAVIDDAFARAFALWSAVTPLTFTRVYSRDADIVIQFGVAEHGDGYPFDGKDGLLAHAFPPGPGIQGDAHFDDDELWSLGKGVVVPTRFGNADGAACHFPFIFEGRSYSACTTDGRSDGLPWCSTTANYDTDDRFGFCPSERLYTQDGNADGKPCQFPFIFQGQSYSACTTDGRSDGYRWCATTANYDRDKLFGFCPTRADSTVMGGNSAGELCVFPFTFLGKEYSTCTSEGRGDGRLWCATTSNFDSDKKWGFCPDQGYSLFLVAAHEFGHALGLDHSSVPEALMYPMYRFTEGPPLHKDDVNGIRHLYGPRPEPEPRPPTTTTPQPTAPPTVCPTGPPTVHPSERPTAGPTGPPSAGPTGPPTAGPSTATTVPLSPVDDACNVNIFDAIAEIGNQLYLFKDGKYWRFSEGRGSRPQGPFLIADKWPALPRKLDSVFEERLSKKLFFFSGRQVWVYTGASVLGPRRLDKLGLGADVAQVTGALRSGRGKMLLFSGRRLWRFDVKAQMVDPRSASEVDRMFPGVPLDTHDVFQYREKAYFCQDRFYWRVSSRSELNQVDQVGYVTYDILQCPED
T2 sequence (P14780 107-707 limits assumed): as above
T5 sequence (P14756 198-498): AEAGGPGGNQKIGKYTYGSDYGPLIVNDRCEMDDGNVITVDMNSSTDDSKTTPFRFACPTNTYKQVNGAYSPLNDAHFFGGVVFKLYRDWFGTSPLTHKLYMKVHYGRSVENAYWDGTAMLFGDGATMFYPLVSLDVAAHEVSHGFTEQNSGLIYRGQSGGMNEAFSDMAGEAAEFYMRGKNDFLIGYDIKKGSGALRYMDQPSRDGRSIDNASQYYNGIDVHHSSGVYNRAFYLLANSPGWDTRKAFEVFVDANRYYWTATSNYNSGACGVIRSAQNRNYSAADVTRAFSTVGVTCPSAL
T6 sequence (P00800 233-548): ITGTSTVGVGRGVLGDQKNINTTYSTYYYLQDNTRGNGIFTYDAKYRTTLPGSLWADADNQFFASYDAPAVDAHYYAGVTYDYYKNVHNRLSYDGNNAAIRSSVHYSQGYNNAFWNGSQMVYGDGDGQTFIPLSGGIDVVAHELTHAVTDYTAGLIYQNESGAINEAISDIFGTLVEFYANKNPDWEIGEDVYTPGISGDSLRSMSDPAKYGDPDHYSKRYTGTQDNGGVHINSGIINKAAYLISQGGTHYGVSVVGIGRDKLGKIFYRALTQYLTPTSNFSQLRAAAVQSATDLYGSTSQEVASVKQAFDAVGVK

Compound: CC(NC(=O)OCc1ccccc1)P(=O)(O)CC(Cc1ccccc1)C(=O)O (centres unmarked) [H4]
- remaining activity at 100 µM [1, 7]: 101%
- remaining activity at 100 µM [1, 8]: 101%
- remaining activity at 100 µM [1, 9]: 102%
- remaining activity at 100 µM [1, 10]: 106%
- vi/v0 Av (bar diagram figure 7) ([1]; inhibitor 100 μM, average over preincubation times): 1.032
- vi/v0 (relative enzyme activity with inhibitor), single determinations [1, 11]: 1.105 and 1.3078 and 1.015 and 0.8074
- vi/v0 (relative enzyme activity with inhibitor), single determinations [1, 12]: 0.8428 and 1.155 and 1.039
- vi/v0 (relative enzyme activity with inhibitor), single determinations [1, 13]: 1.0115 and 1.061 and 0.9741
- remaining activity at 100 µM [2, 14]: 99.2%
- remaining activity at 100 µM [2, 7]: 95%
- remaining activity at 100 µM [2, 9]: 100%
- remaining activity at 100 µM [2, 15]: 94.1%
- remaining activity at 100 µM [2, 10]: 99.6%
- vi/v0 Av (bar diagram figure 7) [2, 16]: 0.9837
- vi/v0 (relative enzyme activity with inhibitor), single determinations [2, 11]: 0.9415 and 1.015 and 1.031
- vi/v0 (relative enzyme activity with inhibitor), single determinations [2, 12]: 0.9922 and 0.9231 and 0.9335
- vi/v0 (relative enzyme activity with inhibitor), single determinations [2, 13]: 1.197 and 1.012 and 1.109 and 0.6833
- remaining activity at 100 µM [3, 14]: 93.4%
- remaining activity at 100 µM [3, 7]: 93.8%
- remaining activity at 100 µM [3, 8]: 97.8%
- remaining activity at 100 µM [3, 9]: 96.3%
- remaining activity at 100 µM [3, 15]: 84.9%
- remaining activity at 100 µM [3, 10]: 88.4%
- vi/v0 Av (bar diagram figure 7) [3, 16]: 0.9238
- vi/v0 (relative enzyme activity with inhibitor), single determinations [3, 11]: 0.8486 and 0.9422 and 0.8609
- vi/v0 (relative enzyme activity with inhibitor), single determinations [3, 12]: 0.9336 and 1.006 and 0.8738
- vi/v0 (relative enzyme activity with inhibitor), single determinations [3, 13]: 0.9779 and 0.9473
- remaining activity at 100 µM ([4]; 0.25 h, read-out: vi/v0 (single replicate), Aureolysin, 15 min pre incubation): 91.1%
- remaining activity at 100 µM ([4]; 0.25 h, read-out: vi/v0 avg, Aureolysin, 15 min pre incubation): 90.2%
- remaining activity at 100 µM ([4]; 0.5 h, read-out: vi/v0 (single replicate), Aureolysin, 30 min pre incubation): 90.1%
- remaining activity at 100 µM ([4]; 0.5 h, read-out: vi/v0 avg, Aureolysin, 30 min pre incubation): 89.4%
- vi/v0 Av (bar diagram figure 7) ([4]; Aureolysin (ALN), inhibitor 100 μM, average over 0, 15, 30 min preincubation): 0.8998
- vi/v0 (relative enzyme activity with inhibitor), single determinations ([4]; Aureolysin (ALN), inhibitor 100 μM, preincubation 0 min): 0.9356 and 0.8634 and 0.8536 and 0.9579
- vi/v0 (relative enzyme activity with inhibitor), single determinations ([4]; Aureolysin (ALN), inhibitor 100 μM, preincubation 15 min): 0.9112 and 0.976 and 0.8542 and 0.865
- vi/v0 (relative enzyme activity with inhibitor), single determinations ([4]; Aureolysin (ALN), inhibitor 100 μM, preincubation 30 min): 0.898 and 0.8819
- remaining activity at 100 µM ([4]; read-out: vi/v0 (single replicate), Aureolysin, no preincubation): 93.6%
- remaining activity at 100 µM ([4]; read-out: vi/v0 avg, Aureolysin, no preincubation): 90.3%
- remaining activity at 100 µM ([5]; 0.25 h, read-out: vi/v0 (single replicate), Pseudolysin, 15 min pre incubation): 75.8%
- remaining activity at 100 µM ([5]; 0.25 h, read-out: vi/v0 avg, Pseudolysin, 15 min pre incubation): 75.4%
- remaining activity at 100 µM ([5]; 0.5 h, read-out: vi/v0 (single replicate), Pseudolysin, 30 min pre incubation): 64.2%
- remaining activity at 100 µM ([5]; 0.5 h, read-out: vi/v0 avg, Pseudolysin, 30 min pre incubation): 64%
- vi/v0 Av (bar diagram figure 7) ([5]; Pseudolysin (PLN), inhibitor 100 μM, average over 0, 15, 30 min preincubation): 0.7111
- vi/v0 (relative enzyme activity with inhibitor), single determinations ([5]; Pseudolysin (PLN), inhibitor 100 μM, preincubation 0 min): 0.8985 and 0.6806 and 0.6817
- vi/v0 (relative enzyme activity with inhibitor), single determinations ([5]; Pseudolysin (PLN), inhibitor 100 μM, preincubation 15 min): 0.7584 and 0.7504
- vi/v0 (relative enzyme activity with inhibitor), single determinations ([5]; Pseudolysin (PLN), inhibitor 100 μM, preincubation 30 min): 0.6423 and 0.5711 and 0.7059
- remaining activity at 100 µM ([5]; read-out: vi/v0 avg, Pseudolysin, no preincubation): 75.4%
- vi/v0 Av (bar diagram figure 7) ([6]; Thermolysin (TLN), inhibitor 100 μM, average over 0, 15, 30 min preincubation): 0.9988
- vi/v0 (relative enzyme activity with inhibitor), single determinations ([6]; Thermolysin (TLN), inhibitor 100 μM, preincubation 0 min): 1.0006 and 1.038 and 0.8834 and 0.9657
- vi/v0 (relative enzyme activity with inhibitor), single determinations ([6]; Thermolysin (TLN), inhibitor 100 μM, preincubation 15 min): 1.066 and 0.8371 and 1.067 and 1.122
- vi/v0 (relative enzyme activity with inhibitor), single determinations ([6]; Thermolysin (TLN), inhibitor 100 μM, preincubation 30 min): 1.04 and 0.9732 and 1.001 and 0.9929
- vi/v0 avg (time dependent inhibition, Supplementary Figure S8) ([6]; 15 min pre incubation): 1.023
- vi/v0 avg (time dependent inhibition, Supplementary Figure S8) ([6]; 30 min pre incubation): 1.002
- vi/v0 avg (time dependent inhibition, Supplementary Figure S8) ([6]; No preincubation): 0.9718
